Tested on: non-operable neck tumor of unknown origin and metastasis in the lungs
Assay: Oral inorganic mercury (II) treatment of a pet English Setter: blood data and clinical follow-up
Format: in vivo, dog
Parameters: Anion Gap / MCV / MCH / MCHC / Neutrophils, absolute / Lymphocytes, absolute / Monocytes, absolute / Eosinophils, absolute: unit not given here
Protocol: A 10 years old female English Setter was diagnosed with a non-operable neck tumor of unknown origin and metastasis in the lungs.
The dog completed 130-day inorganic mercury (II) treatment that consisted of 58 days of the first treatment course followed by 20 days of an interval period, and the 52-day second treatment course. The formulation contained 1 mM mercury acetate in 20 mM sodium acetate buffer, pH 4.5, with 100 mM sucrose and 150 mM sodium chloride additives. It was introduced orally to the dog three times a day at 0.5 micromole Hg^2+/kg/day. At the start of the treatment, the dog was in poor health condition: was easily tired, had difficulty to swallow, heavy breathing due to lung metastasis. The tumor was easily palpated at the neck. […] These changes were correlated with reduction in ALP levels (Days 5, 22, 40, 65).
During the second treatment course the progression of the disease was slowed down, but not to the degree observed during the first treatment course. The treatment was stopped at Day 128, and the dog was euthanized 2-3 weeks later.

CC(=O)[O-].CC(=O)[O-].[Hg+2] [inorganic mercury (II), mercury acetate]
ALT (SGPT) (Day 5): 84 U/L
AST (SGOT) (Day 5): 22 U/L
Albumin (Day 5): 3.3 g/dL
Albumin/Globulin Ratio (Day 5): 1.1
Alkaline Phosphatase (ALP) (Day 5): 204 U/L
Amylase (Day 5): 771 U/L
Anion Gap (Day 5): 26
BUN (Day 5): 39 mg/dL
BUN/Creatinine Ratio (Day 5): 43.3
CPK (Day 5): 84 U/L
Calcium (Day 5): 11.7 mg/dL
Chloride (Day 5): 113 mE/L
Cholesterol (Day 5): 269 mg/dL
Creatinine (Day 5): 0.9 mg/dL
Direct Billirubin (Day 5): 0 mg/dL
Eosinophils, (%) (Day 5): 4%
Eosinophils, absolute (Day 5): 576
GGT (Day 5): 2 U/L
Globulin (Day 5): 2.9 g/dL
Glucose (Day 5): 116 mg/dL
Hematocrit (Day 5): 41.8%
Hemoglobin (Day 5): 14.5 g/dL
Indirect Billirubin (Day 5): 0.2 mg/dL
Lipase (Day 5): 799 U/L
Lymphocytes, (%) (Day 5): 48%
Lymphocytes, absolute (Day 5): 6912
MCH (Day 5): 24.5
MCHC (Day 5): 34.7
MCV (Day 5): 71
Monocytes, (%) (Day 5): 6%
Monocytes, absolute (Day 5): 864
Na/K ratio (Day 5): 32
Neutrophils, (%) (Day 5): 41%
Neutrophils, absolute (Day 5): 5904
Phosphorus (Day 5): 5.2 mg/dL
Platelet count (Day 5): 534 10^3/microl
Potassium (Day 5): 4.8 mE/L
RBC (Day 5): 5.9 10^6/microl
Sodium (Day 5): 152 mE/L
T4 (Day 5): 1.4 µg/dL
Total Billirubin (Day 5): 0.2 mg/dL
Total Protein (Day 5): 6.2 g/dL
WBC (Day 5): 14.4 10^3/microl
tCO2 (Day 5): 18 mEq/L
ALT (SGPT) (Day 22): 84 U/L
AST (SGOT) (Day 22): 13 U/L
Albumin (Day 22): 3.3 g/dL
Albumin/Globulin Ratio (Day 22): 1.2
Alkaline Phosphatase (ALP) (Day 22): 142 U/L
Amylase (Day 22): 738 U/L
Anion Gap (Day 22): 24
BUN (Day 22): 17 mg/dL
BUN/Creatinine Ratio (Day 22): 21.3
CPK (Day 22): 96 U/L
Calcium (Day 22): 10.8 mg/dL
Chloride (Day 22): 113 mE/L
Cholesterol (Day 22): 230 mg/dL
Creatinine (Day 22): 0.8 mg/dL
Direct Billirubin (Day 22): 0 mg/dL
Eosinophils, (%) (Day 22): 2%
Eosinophils, absolute (Day 22): 332
GGT (Day 22): 3 U/L
Globulin (Day 22): 2.8 g/dL
Glucose (Day 22): 102 mg/dL
Hematocrit (Day 22): 44.7%
Hemoglobin (Day 22): 15.2 g/dL
Indirect Billirubin (Day 22): 0.1 mg/dL
Lipase (Day 22): 718 U/L
Lymphocytes, (%) (Day 22): 64%
Lymphocytes, absolute (Day 22): 10624
MCH (Day 22): 24.3
MCHC (Day 22): 34.1
MCV (Day 22): 71
Na/K ratio (Day 22): 26
Neutrophils, (%) (Day 22): 34%
Neutrophils, absolute (Day 22): 5644
Phosphorus (Day 22): 3.6 mg/dL
Platelet count (Day 22): 483 10^3/microl
Potassium (Day 22): 5.7 mE/L
RBC (Day 22): 6.26 10^6/microl
Sodium (Day 22): 150 mE/L
T4 (Day 22): 1.8 µg/dL
Total Billirubin (Day 22): 0.1 mg/dL
Total Protein (Day 22): 6.1 g/dL
WBC (Day 22): 16.6 10^3/microl
tCO2 (Day 22): 19 mEq/L
ALT (SGPT) (Day 40): 87 U/L
AST (SGOT) (Day 40): 20 U/L
Albumin (Day 40): 3.4 g/dL
Albumin/Globulin Ratio (Day 40): 1.1
Alkaline Phosphatase (ALP) (Day 40): 111 U/L
Anion Gap (Day 40): 28
BUN (Day 40): 22 mg/dL
BUN/Creatinine Ratio (Day 40): 24.4
CPK (Day 40): 124 U/L
Calcium (Day 40): 11.0 mg/dL
Chloride (Day 40): 110 mE/L
Cholesterol (Day 40): 222 mg/dL
Creatinine (Day 40): 0.9 mg/dL
Direct Billirubin (Day 40): 0.1 mg/dL
Eosinophils, (%) (Day 40): 1%
Eosinophils, absolute (Day 40): 160
GGT (Day 40): 2 U/L
Globulin (Day 40): 3.0 g/dL
Glucose (Day 40): 99 mg/dL
Hematocrit (Day 40): 46.1%
Hemoglobin (Day 40): 14.8 g/dL
Indirect Billirubin (Day 40): 0 mg/dL
Lymphocytes, (%) (Day 40): 64%
Lymphocytes, absolute (Day 40): 10240
MCH (Day 40): 23.7
MCHC (Day 40): 32.2
MCV (Day 40): 74
Monocytes, (%) (Day 40): 6%
Monocytes, absolute (Day 40): 960
Na/K ratio (Day 40): 26
Neutrophils, (%) (Day 40): 29%
Neutrophils, absolute (Day 40): 4640
Phosphorus (Day 40): 4.6 mg/dL
Platelet count (Day 40): 511 10^3/microl
Potassium (Day 40): 5.7 mE/L
RBC (Day 40): 6.26 10^6/microl
Sodium (Day 40): 151 mE/L
Total Billirubin (Day 40): 0.1 mg/dL
Total Protein (Day 40): 6.4 g/dL
WBC (Day 40): 16 10^3/microl
tCO2 (Day 40): 19 mEq/L
ALT (SGPT) (Day 65): 111 U/L
AST (SGOT) (Day 65): 28 U/L
Albumin (Day 65): 3.5 g/dL
Albumin/Globulin Ratio (Day 65): 1.5
Alkaline Phosphatase (ALP) (Day 65): 78 U/L
Amylase (Day 65): 431 U/L
Anion Gap (Day 65): 27
BUN (Day 65): 30 mg/dL
BUN/Creatinine Ratio (Day 65): 30
CPK (Day 65): 120 U/L
Calcium (Day 65): 10.5 mg/dL
Chloride (Day 65): 109 mE/L
Cholesterol (Day 65): 169 mg/dL
Creatinine (Day 65): 1.0 mg/dL
Direct Billirubin (Day 65): 0.1 mg/dL
Eosinophils, (%) (Day 65): 1%
Eosinophils, absolute (Day 65): 211
GGT (Day 65): 7 U/L
Globulin (Day 65): 2.4 g/dL
Glucose (Day 65): 94 mg/dL
Hematocrit (Day 65): 44.6%
Hemoglobin (Day 65): 14.3 g/dL
Indirect Billirubin (Day 65): 0 mg/dL
Lipase (Day 65): 449 U/L
Lymphocytes, (%) (Day 65): 61%
Lymphocytes, absolute (Day 65): 12871
MCH (Day 65): 23.5
MCHC (Day 65): 32.1
MCV (Day 65): 73
Na/K ratio (Day 65): 29
Neutrophils, (%) (Day 65): 38%
Neutrophils, absolute (Day 65): 8018
Phosphorus (Day 65): 4.4 mg/dL
Platelet count (Day 65): 404 10^3/microl
Potassium (Day 65): 5.2 mE/L
RBC (Day 65): 6.09 10^6/microl
Sodium (Day 65): 150 mE/L
T4 (Day 65): 1.6 µg/dL
Total Billirubin (Day 65): 0.1 mg/dL
Total Protein (Day 65): 5.9 g/dL
WBC (Day 65): 21.1 10^3/microl
tCO2 (Day 65): 19 mEq/L
ALT (SGPT) (Day 103): 95 U/L
AST (SGOT) (Day 103): 25 U/L
Albumin (Day 103): 3.2 g/dL
Albumin/Globulin Ratio (Day 103): 1.3
Alkaline Phosphatase (ALP) (Day 103): 58 U/L
Amylase (Day 103): 745 U/L
Anion Gap (Day 103): 27
BUN (Day 103): 13 mg/dL
BUN/Creatinine Ratio (Day 103): 16.3
CPK (Day 103): 103 U/L
Calcium (Day 103): 9.6 mg/dL
Chloride (Day 103): 107 mE/L
Cholesterol (Day 103): 146 mg/dL
Creatinine (Day 103): 0.8 mg/dL
Direct Billirubin (Day 103): 0.1 mg/dL
Eosinophils, (%) (Day 103): 1%
Eosinophils, absolute (Day 103): 165
GGT (Day 103): 6 U/L
Globulin (Day 103): 2.4 g/dL
Glucose (Day 103): 107 mg/dL
Hematocrit (Day 103): 40.7%
Hemoglobin (Day 103): 13.4 g/dL
Indirect Billirubin (Day 103): 0 mg/dL
Lipase (Day 103): 630 U/L
Lymphocytes, (%) (Day 103): 71%
Lymphocytes, absolute (Day 103): 11715
MCH (Day 103): 23.4
MCHC (Day 103): 32.9
MCV (Day 103): 71
Monocytes, (%) (Day 103): 7%
Monocytes, absolute (Day 103): 1155
Na/K ratio (Day 103): 28
Neutrophils, (%) (Day 103): 20%
Neutrophils, absolute (Day 103): 3300
Phosphorus (Day 103): 3.7 mg/dL
Platelet count (Day 103): 409 10^3/microl
Potassium (Day 103): 5.2 mE/L
RBC (Day 103): 5.72 10^6/microl
Sodium (Day 103): 148 mE/L
T4 (Day 103): 1.4 µg/dL
Total Billirubin (Day 103): 0.1 mg/dL
Total Protein (Day 103): 5.6 g/dL
WBC (Day 103): 16.5 10^3/microl
tCO2 (Day 103): 19 mEq/L
ALT (SGPT) (Day 128): 89 U/L
AST (SGOT) (Day 128): 23 U/L
Albumin (Day 128): 3.0 g/dL
Albumin/Globulin Ratio (Day 128): 1.2
Alkaline Phosphatase (ALP) (Day 128): 45 U/L
Amylase (Day 128): 633 U/L
Anion Gap (Day 128): 22
BUN (Day 128): 24 mg/dL
BUN/Creatinine Ratio (Day 128): 30
CPK (Day 128): 53 U/L
Calcium (Day 128): 9.9 mg/dL
Chloride (Day 128): 116 mE/L
Cholesterol (Day 128): 133 mg/dL
Creatinine (Day 128): 0.8 mg/dL
Direct Billirubin (Day 128): 0.1 mg/dL
Eosinophils, (%) (Day 128): 2%
Eosinophils, absolute (Day 128): 330
GGT (Day 128): 13 U/L
Globulin (Day 128): 2.6 g/dL
Glucose (Day 128): 116 mg/dL
Hematocrit (Day 128): 38.1%
Hemoglobin (Day 128): 12.3 g/dL
Indirect Billirubin (Day 128): 0 mg/dL
Lipase (Day 128): 415 U/L
Lymphocytes, (%) (Day 128): 46%
Lymphocytes, absolute (Day 128): 7774
MCH (Day 128): 22.6
MCHC (Day 128): 32.2
MCV (Day 128): 70
Monocytes, (%) (Day 128): 5%
Monocytes, absolute (Day 128): 845
Na/K ratio (Day 128): 31
Neutrophils, (%) (Day 128): 47%
Neutrophils, absolute (Day 128): 7943
Phosphorus (Day 128): 3.1 mg/dL
Platelet count (Day 128): 508 10^3/microl
Potassium (Day 128): 4.8 mE/L
RBC (Day 128): 5.44 10^6/microl
Sodium (Day 128): 151 mE/L
T4 (Day 128): 1.1 µg/dL
Total Billirubin (Day 128): 0.1 mg/dL
Total Protein (Day 128): 5.6 g/dL
WBC (Day 128): 16.9 10^3/microl
tCO2 (Day 128): 19 mEq/L
general condition (during the first treatment course): steady improvement
progression of the disease (during the second treatment course, not to the degree of the first course): slowed down

Reference: patent US20070154567A1, “Use of mercury to treat cancer” (priority 2006, published 2007)
